From PubChem BioAssay (NCI)
Several values for one entry are separate records, joined by “and”; a condition that tells them apart may be missing. Equal entries are not always repeated.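 48-hour exposure; five concentrations; linearly interpolated endpoints. GI50 = concentration required for 50% inhibition of growth. TGI is the concentration that stops growth completely.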

Experiments:
Test in all cases: NCI tumour cell line growth inhibition, 48 h
786-0 renal = tested on: 786-0 renal
A549 NSCLC = tested on: A549 NSCLC
BT-549 breast = tested on: BT-549 breast
CAKI-1 renal = tested on: CAKI-1 renal
IGROV1 ovarian = tested on: IGROV1 ovarian
OVCAR-8 ovarian = tested on: OVCAR-8 ovarian
SK-OV-3 ovarian = tested on: SK-OV-3 ovarian
UACC-257 melanoma = tested on: UACC-257 melanoma
HOP-62 NSCLC = tested on: HOP-62 NSCLC
MOLT-4 leukemia = tested on: MOLT-4 leukemia

Compound	GI50 (786-0 renal) [nM]	TGI (786-0 renal)	GI50 (A549 NSCLC) [nM]	TGI (A549 NSCLC)	GI50 (BT-549 breast) [nM]	TGI (BT-549 breast)	GI50 (CAKI-1 renal) [µM]	TGI (CAKI-1 renal) [µM]	GI50 (IGROV1 ovarian) [µM]	TGI (IGROV1 ovarian)	GI50 (OVCAR-8 ovarian) [nM]	TGI (OVCAR-8 ovarian) [µM]	GI50 (SK-OV-3 ovarian) [nM]	TGI (SK-OV-3 ovarian) [µM]	GI50 (UACC-257 melanoma) [nM]	TGI (UACC-257 melanoma) [µM]	GI50 (HOP-62 NSCLC) [nM]	TGI (HOP-62 NSCLC)	GI50 (MOLT-4 leukemia) [nM]	TGI (MOLT-4 leukemia) [µM]
Cc1cc(C)c(-c2c(N)cc(Br)cc2Br)c(N)c1	7750	21.6 µM	5620	19.6 µM	5760	18.2 µM	3.83	19.1	6.13	22.7 µM	10200	31.7	3530	14.3	5840	22.1	–	–	–	–
CN1CCN(Cc2ccc(NC(=O)c3cncc(C#Cc4cnc(N)c5cccnc45)c3)cc2C(F)(F)F)CC1	1260	> 50 µM	1350	> 50 µM	1480	> 50 µM	–	> 50	–	–	397	> 50	203	> 50	273	> 50	498	> 19.1 µM	214	> 50
CNS(=O)(=O)NNS(=O)(=O)c1ccc(OC)cc1	–	> 100 µM	–	> 100 µM	–	–	–	> 100	–	> 100 µM	–	> 100	–	> 100	–	> 100	–	> 100 µM	–	> 100
O=[N+]([O-])c1cc([N+](=O)[O-])c(Nn2c3ccccc3c3ccccc32)c([N+](=O)[O-])c1	324	13.1 µM and 15.9 µM	334	14.3 µM and > 100 µM	278	7.32 µM and 1.23 µM	0.238	0.703	0.418	25.4 µM and 21.2 µM	371	–	–	–	312	1.63	344	6.11 µM and 2.07 µM	110	> 100
O=C(/C=C\c1cccc2ccccc12)c1ccc(Cl)cc1Cl	–	33.1 µM	–	> 100 µM	–	–	–	> 100	–	> 100 µM	–	37.3	–	> 100	–	75.3	–	> 100 µM	–	63.9
Cc1cc2c(-c3nc4ccccn4c3N)c(O)c(O)cc2c(O)c1-c1c(C)cc2c(-c3nc4ccccn4c3N)c(O)c(O)cc2c1O	2820	> 25 µM	688	> 25 µM	145	> 25 µM	–	–	1.36	> 25 µM	975	> 25	805	6.03	2900	> 25	1150	> 25 µM	1010	> 25
O=C1c2ccccc2C2CCC1c1ccccc12 (configuration not stated)	–	> 100 µM	–	> 100 µM	–	–	–	> 100	–	> 100 µM	–	> 100	–	> 100	–	76.6	–	> 100 µM	–	45.7
COC(=O)c1cc2c3ccccc3n3c2c(n1)-c1[nH]c2ccccc2c(=O)c1C3	16800	60.3 µM	> 100000	> 100 µM	22600	63.2 µM	> 100	> 100	24.6	> 100 µM	> 100000	> 100	19600	> 100	> 100000	> 100	–	–	5900	> 100
COC(=O)[C@@]12CC(C(C)C)[C@H]3CC(C(=O)C=C1OC)[C@H]32 (some centres not stated)	–	> 100 µM	–	> 100 µM	–	–	–	> 100	–	> 100 µM	–	> 100	–	> 100	–	> 100	–	> 100 µM	–	> 100
